Like-named read-outs stand apart in the source and are kept apart here.
Columns and labels:
CT-2A = experiment: Potency (cell viability v. concentration) against GBM cell line CT-2A; format: cell-based
Method: (§1) The potencies of several therapies again GBM cells lines were measured.
(§2) FIG. 3 depicts a plot of cell viability v. concentration of each of the therapies listed in the foregoing table.

GL261 = experiment: Potency (cell viability v. concentration) against GBM cell line GL261; format: cell-based
Method: as §1, §2

[1] = In vitro drug release from hydrogels; format: physicochemical
Method: Doxorubin release profiles of the foregoing compositions were tested.
Also compared was the cumulative release percentage of doxil and doxorubicin.
The in vitro release of acriflavine also was tested. An injectable hydrogel formulation (75% oxidized dextran, 12.5% w/v; PAMAM dendrimer, 15% w/v, pH 9.2) was prepared with four different loading concentrations (0.625 mg, 1.25 mg, 2.5 mg, and 5 mg, each of which had been previously injected locally in the brain).

GBM spheroids = experiment: Elimination of GBM spheroids in vitro; format: cell-based; conditions: compared with other tested chemotherapies
Source text: The other tested chemotherapies, however, may be used in the methods and compositions described herein.

GBM cells = experiment: Calreticulin surface expression and HMGB1 excretion of GBM cells
[2] = Mus musculus, GL261, read-out: IC50 in GL261

Compound	IC50 (CT-2A; read-out: IC50 in CT-2A) [µM]	IC50 (GL261; [2]) [µM]	also measured
CCc1c2c(nc3ccc(OC(=O)N4CCC(N5CCCCC5)CC4)cc13)-c1cc3c(c(=O)n1C2)COC(=O)[C@]3(O)CC [Irinotecan]	150	107	–
Acriflavine	7.3	–	activity upon release ([1]; released from hydrogel): retained its activity upon release; IC50 (GL261; read-out: IC50 in GL261): 2.7 µM
Cn1nnc2c(C(N)=O)ncn2c1=O [Temozolomide]	> 750	> 750	–
O=NN(CCCl)C(=O)NCCCl [Carmustine (BCNU), Carmustine]	156	146	–
COc1cccc2c1C(=O)c1c(O)c3c(c(O)c1C2=O)C[C@@](O)(C(=O)CO)C[C@@H]3O[C@H]1C[C@H](N)[C@H](O)[C@H](C)O1 [Doxorubicin]	0.1	0.8	elimination of GBM spheroids (GBM spheroids): more potently eliminated GBM spheroids in vitro than other tested chemotherapies; IC50 (CT-2A; comparative testing doxil v. doxorubicin, FIG. 20A/20B, read-out: potency from cell viabilities, CT-2A (quantity not named)): 0.17 µM; cumulative percentage released, doxorubicin compared with doxil ([1]; over 200 hours, FIG. 11): greater cumulative percentage; surface expression of calreticulin (GBM cells; FIG. 42, FIG. 43): increase the surface expression of calreticulin; HMGB1 excretion (GBM cells; at relevant concentrations): did not impact HMGB1 excretion at relevant concentrations; IC50 (GL261; Mus musculus, GL261, comparative testing doxil v. doxorubicin, FIG. 20A/20B, read-out: potency from cell viabilities, GL261 (quantity not named)): 0.83 µM
